Experimental data as given in patent US20180326055A1, “NANOSTRUCTURE” (RIKEN, priority 2017, published 2018).

Tested on: HeLa cell
Assay: Delivery of PI by nanocapsule into cells (fluorescent microscope)
Format: cell-based
Settings: incubated 1 hour
Method: PI-encapsulating nanocapsule was prepared in the same manner as described in Example 2. The PI-encapsulating nanocapsule dispersion was incubated with HeLa cell for 1 hour and washed with a buffer solution several times to remove the nanocapsule and free PI outside completely. The location of PI was evaluated by fluorescent microscope observation. PI alone incubated with HeLa cell for 1 hour was used as a negative control.

## CC[N+](C)(CC)CCC[n+]1c(-c2ccccc2)c2cc(N)ccc2c2ccc(N)cc21.[I-].[I-] [PI, propidium iodide]
  uptake of PI by cells: not taken up by cells
